pIC50: −log10 of the molar value. Where a name gives a salt, the structure may show the parent alone.

The term pIC50 denotes the negative decadic logarithm of the IC50, by convention in mol/L.

For one assay, the target named is PCP receptor. Nature of the assay: PCP receptor radioligand binding assay ([3H]MK-801, rat brain membranes). As to conditions: read-out: [3H-MK801] IC50; displacement of [3H]MK-801, rat brain membranes.
For a further assay, the target named is sigma receptor. Briefly: Sigma receptor binding assay ([3H]DTG, guinea pig brain membrane homogenates). The conditions noted are these: displacement of [3H]DTG, guinea pig brain membranes. The method, then: Sigma Receptor Binding Assay
Briefly, frozen whole guinea-pig brains (Biotrol, Indianapolis, Ind.) were homogenized in 10 volumes (w/v) of ice-cold 320 mM sucrose using a Brinkman polytron. The homogenate was centrifuged at 1,000×g for 20 minutes at 4° C. The supernatant was centrifuged at 20,000×g for 20 minutes at 4° C. The resulting pellet was resuspended in 10 initial volumes of 50 mM Tris/HCl buffer at pH 7.4 and centrifuged at 20,000×g for 20 minutes at 4° C. The resulting pellet was resuspended in 5 initial volumes ice-cold 50 mM Tris/HCl (pH 7.4), and the final volume was adjusted to yield a protein concentration of 3 mg/ml. Aliquots of 20-ml were stored at -70° C. until used, with no detectable loss of binding.
The protein concentration in the 1-ml final incubation volume was 800 μg/ml, corresponding to 32 mg of brain tissue (original wet weight) and to a tissue concentration within the linear range for specific binding. […] Incubations were terminated after 90 minutes at room temperature by addition of 4 ml of ice-cold 50 mM Tris/HCl (pH 7.4) and rapid filtration of the membrane suspension through Whatman GF/B glass-fiber filters under vacuum, using a 48-well cell harvester (Brandel). The filters were washed 2 times with 4 ml of 50 mM Tris/HCl (pH 7.4). […] IC50 values were determined by non-linear regression analysis.

Consider `CN(C(=N)Nc1cccc2ccccc12)c1cc(Cl)ccc1Cl` [Compd. No. 50 (Table I), N-(1-Naphthyl)-N'(2,5-dichlorophenyl)-N'-methylguanidine hydrochloride], for which the pIC50 at PCP receptor is 7.21; at sigma receptor it was 5.88.
On to `CN(C(=N)Nc1cccc2ccccc12)c1cccc(Br)c1` [Compd. No. 53 (Table I)], for which the pIC50 at PCP receptor was 7.27.
For the molecule `Cc1ccc(Cl)c(NC(=N)Nc2cccc3cccnc23)c1` [Compd. No. 48 (Table I), N-(8-Quinolinyl)-N'-(2-chloro-5-methylphenyl)guanidine hydrochloride], the pIC50 was 7.49 at PCP receptor and 6.00 at sigma receptor.
On the same counts, the results for `CSc1ccc(Cl)c(NC(=N)Nc2cccc3ccccc23)c1` [Compd. No. 46 (Table I), N-(1-Naphthyl)-N'-(2-chloro-5-thiomethylphenyl)guanidine hydrochloride] are 7.37 and 7.60.
On the same counts, the results for `CCc1cccc(N(C)C(=N)Nc2cccc3ccccc23)c1` [Compd. No. 58 (Table I)] are 7.43 and 5.60.
For `CCc1cccc(NC(=N)Nc2cc(C(F)(F)F)ccc2F)c1` [Compound 5] the same measures were 7.00 and 7.83.
With `CCc1cccc(NC(=N)Nc2cccc(Cl)c2)c1` [Compd. No. 3 (Table I)], the pIC50 is 6.84 on PCP receptor and 7.81 at sigma receptor.
In the case of `CCc1ccc(Br)c(NC(=N)N(C)c2cccc(SC)c2)c1` [Compd. No. 64 (Table I), N-(3-Methylthiophenyl)-N-methyl-N'-(2-bromo-5-ethylphenyl)guanidine hydrochloride], the pIC50 at sigma receptor is 6.74.
As for `CCc1cccc(N(C)C(=N)Nc2cc(SC)ccc2Br)c1` [Compd. No. 59 (Table I)], the pIC50 is 8.50 at PCP receptor and 6.62 at sigma receptor.
On the same counts, the results for `CCc1ccc(Cl)c(NC(=N)Nc2cc(C)ccc2Cl)c1` [Compd. No. 29 (Table I)] are 7.26 and 7.44.
For `CCc1ccc(Cl)c(NC(=N)N(C)c2cccc(SC)c2)c1` [Compd. No. 61 (Table I), N-(3-Methylthiophenyl)-N-methyl-N'-(2-chloro-5-ethylphenyl)guanidine hydrochloride] the same measures were 7.90 and 6.75.
For `Cc1ccc(C)c(NC(=N)Nc2cccc3ccccc23)c1` [Compd. No. 33 (Table I), N-(1-Naphthyl)-N'-(2,5-dimethylphenyl)guanidine hydrochloride] the same measures were 7.10 and 7.56.
For the molecule `CCc1cccc(N(C)C(=N)Nc2cc(C(F)(F)F)ccc2Br)c1` [Compd. No. 13 (Table I), N-(3-Ethylphenyl)-N-methyl-N'-(2-bromo-5-trifluoromethylphenyl)guanidine hydrochloride], the pIC50 on PCP receptor was 6.99; at sigma receptor, 6.68.
Take `CN(C(=N)Nc1cc(Br)ccc1Br)c1cccc(C(F)(F)F)c1` [Compd. No. 71 (Table I), N-(3-Trifluoromethylphenyl)-N-methyl-N'-(2,5-dibromophenyl)guanidine hydrochloride]: the pIC50 at PCP receptor is 7.47; on sigma receptor it was 6.65.
For `CCc1cccc(N(C)C(=N)Nc2cc(C(F)(F)F)ccc2F)c1` [Compd. No. 14 (Table I), N-(3-Ethylphenyl)-N-methyl-N'-(2-fluoro-5-trifluoromethylphenyl)guanidine hydrochloride] the same measures were 6.60 and 7.07.
For `CN(C(=N)Nc1cccc2ccccc12)c1cccc(Cl)c1` [Compd. No. 52 (Table I)] the same measures were 6.97 and 5.53.
For `CCc1cccc(NC(=N)Nc2cc(C(F)(F)F)ccc2Cl)c1` [Compd. No. 6 (Table I), N-(3-Ethylphenyl)-N'-(2-chloro-5-trifluoromethylphenyl)guanidine hydrochloride] the same measures were 7.24 and 7.85.
Regarding `N=C(Nc1cc(C(F)(F)F)ccc1Br)Nc1cccc2ccccc12` [Compd. No. 41 (Table I), N-(1-Naphthyl)-N'-(2-bromo-5-trifluoromethylphenyl)guanidine hydrochloride], the pIC50 on PCP receptor is 7.29; on sigma receptor, 7.30.
For `CSc1ccc(C(F)(F)F)cc1NC(=N)Nc1cccc2ccccc12` [Compd. No. 42 (Table I), N-(1-Naphthyl)-N'-(2-thiomethyl-5-trifluoromethylphenyl)guanidine hydrochloride] the same measures were 6.77 and 6.38.
On the same counts, the results for `CCc1cccc(N(C)C(=N)Nc2cccc(Cl)c2)c1` [Compd. No. 12 (Table I)] are 6.19 and 7.36.
On the same counts, the results for `CCc1cccc(N(C)C(=N)Nc2cc(Cl)ccc2Cl)c1` [Compd. No. 10 (Table I), N-(3-ethylphenyl)-N-methyl-N'-(2,5-dichlorophenyl)guanidine hydrochloride] are 7.07 and 7.55.
Regarding `N=C(Nc1cc(C(F)(F)F)ccc1Cl)Nc1cccc2ccccc12` [Compd. No. 40 (Table I), N-(1-Naphthyl)-N'-(2-chloro-5-trifluoromethylphenyl)guanidine hydrochloride], the figures for the pIC50 at PCP receptor and at sigma receptor were 7.41 and 7.28, respectively.
In the case of `CCc1ccc(Br)c(NC(=N)N(C)c2cccc(OC(F)(F)F)c2)c1` [Compound 74], the pIC50 on PCP receptor was 7.80.
With `CCc1cccc(N(C)C(=N)Nc2cc(Br)ccc2Br)c1` [Compd. No. 11 (Table I), N-(3-ethylphenyl)-N-methyl-N'-(2,5-dibromophenyl)guanidine hydrochloride], the pIC50 was 7.32 at PCP receptor and 7.40 on sigma receptor.
On the same counts, the results for `CCc1cccc(NC(=N)Nc2cc(C(F)(F)F)ccc2Br)c1` [Compd. No. 4 (Table I), N-(3-Ethylphenyl)-N'-(2-bromo-5-trifluoromethylphenyl)guanidine hydrochloride] are 7.06 and 7.99.
Take `CSc1ccc(Cl)c(NC(=N)N(C)c2cccc(I)c2)c1` [Compound 77]: the negative logarithm of the IC50 (pIC50) on PCP receptor is 8.68.
Take `CCc1cccc(N(C)C(=N)N(C)c2cc(Cl)ccc2Cl)c1` [Compd. No. 26 (Table I), N-(3-Ethylphenyl)-N-methyl-N'-(2,5-dichlorophenyl)-N'-methylguanidine hydrochloride]: on PCP receptor, the pIC50 is 7.03.
On the same count and under the same terms, for `CCc1ccc(Cl)c(NC(=N)Nc2cccc(I)c2)c1` [Compound 78] the value was 7.86; for `CN(C(=N)Nc1cc(Br)ccc1Br)c1cccc([S+](C)[O-])c1` (stereo not shown) [Compound 76], 6.49.
Consider `CSc1cccc(N(C)C(=N)Nc2cc(SC)ccc2Cl)c1` [Compd. No. 60 (Table I), N-(3-Methylthiophenyl)-N-methyl-N'-(2-chloro-5-methylthiophenyl)guanidine hydrochloride], for which the pIC50 at PCP receptor was 8.61; at sigma receptor it was 6.32.
On the same counts, the results for `CSc1ccc(Cl)c(NC(=N)N(C)c2cccc3cccnc23)c1` [Compound 79] are 7.65 and 6.27.
Consider `Cc1cccc(NC(=N)Nc2cccc3ccccc23)c1` [Compd. No. 38 (Table I)], for which the pIC50 is 6.72 at PCP receptor and 7.12 at sigma receptor.
`CSc1ccc(Cl)c(NC(=N)N(C)c2cccc(Br)c2)c1` [Compd. No. 72 (Table I), N-(3-Bromophenyl)-N-methyl-N'-(2-chloro-5-methylthiophenyl)guanidine hydrochloride]: on PCP receptor, the pIC50 is 8.33.
Still for that read-out and setting: for `CSc1cccc(N(C)C(=N)Nc2cc(SC)ccc2Br)c1` [Compd. No. 63 (Table I), N-(3-Methylthiophenyl)-N-methyl-N'-(2-bromo-5-methylthiophenyl)guanidine] the value was 8.67.
Take `CCc1cccc(N(C)C(=N)N(C)c2cc(CC)ccc2Cl)c1` [Compd. No. 28 (Table I), N-(3-Ethylphenyl)-N-methyl-N'-(2-chloro-5-ethylphenyl)-N'-methylguanidine hydrochloride]: the negative-log IC50 (pIC50) on PCP receptor was 6.84.
Consider `CN(C(=N)Nc1cc(Br)ccc1Br)c1cccc(OC(F)(F)F)c1` [Compd. No. 73 (Table I), N-(3-Trifluoromethoxyphenyl)-N'-(2,5-dibromophenyl)-N-methylguanidine hydrochloride], for which, on PCP receptor, the pIC50 was 7.59.
The molecule `CN(C(=N)Nc1cc(Cl)ccc1Cl)c1cccc(C(F)(F)F)c1` [Compd. No. 68 (Table I), N-(3-Trifluoromethylphenyl)-N-methyl-N'-(2,5-dichlorophenyl)guanidine hydrochloride] showed a pIC50 at sigma receptor of 6.96.
In the case of `CN(C(=N)Nc1cc(Br)ccc1Br)c1cccc(S(C)(=O)=O)c1` [Compound 75], on PCP receptor, the pIC50 is 6.28.
As for `CSc1cccc(N(C)C(=N)Nc2cc(Br)ccc2Br)c1` [Compd. No. 65 (Table I), N-(3-Methylthiophenyl)-N-methyl-N'-(2,5-dibromophenyl)guanidine hydrochloride], the pIC50 at PCP receptor is 8.27.

The values above are taken from patent publication US6153604A, “Therapeutic substituted guanidines” (Cambridge NeuroScience, Inc., priority 1995, dated 2000).
